Measured values: US6469037B2, “Prophylactic or therapeutic drug for renal diseases” (Takeda Chemical Industries, Ltd., priority 1993, dated 2002)

Legend:
Wistar fatty rats = assay: Antiproteinuric action in rats with non-insulin-dependent diabetes (Wistar fatty rats); format: in vivo
Text: Antiproteinuric action in rats with non-insulin-dependent (NIDD) diabetes (Wistar fatty rats) (Ikeda, H., Shino, A., Matsuo, T., Iwatsuka, H., and Suzuoki, Z.: Diabetes, 30, 1045 (1981) or Kava, R. A., West, D. B., Lukasik, V. A., and Greenwood, M. R. C: Diabetes, 38,159 (1989) Compound 1: (±)-1-(cyclohexyloxycarbonyloxy)ethyl 2-ethoxy-1-[[2′-(1H-tetrazole-5-yl)biphenyl-4-yl]methyl]-1H-benzimidazole-7-carboxylate Method: On the basis of blood glucose level and urinary protein content, 11-week-old Wistar fatty rats were divided into two groups (vehicle-treated rats and rats treated with 1 mg/kg/day, p.o. of compound 1). Non-diabetic control rats (lean rats) were also used. Compound 1 was suspended in gum-arabic and the suspension was orally administered once a day for ten weeks. At the 2nd, 4th, 6th, 8th and 10th week of the treatment, 24 hour urine was collected. The urine was centrifuged at 3,000 rpm and a portion of the supernatant was desalted on a column (Pharmacia PD10). Urinary total protein content and albumin content were determined by Lowry and ELISA methods, respectively. Results: Table 2 summarizes the results. Urinary total protein content increased in vehicle-treated rats to about three times of the value in lean rats. This increase, however, was reduced to 1.2-1.5 times by the-treatment with compound 1. […] This increase, however, was reduced to 20-30 times by the treatment with compound 1. […] In non-insulin-dependent diabetic models, compound 1 is expected to be effective against diabetic nephropathy by decreasing the urinary protein without affecting the blood glucose level.

[1] = test system: rats with subtotally (5/6) nephrectomy; assay: Antiproteinuric action in rats with subtotally (5/6) nephrectomy (focal glomerulosclerosis model); format: in vivo
Text: Antiproteinuric action in rats with subtotally (5/6) nephrectomy (focal glomerulorsclerosis model; Meyer, T. W. and Renake, H. G.: Am. J. Physiol. 254, F856 (1988) or Yoshioka, T., Shiraga, H., Yoshida, Y., Fogo. A., Glick, A. D.: J. Clin. Invest. 82, 1614 (1988)) Compound 1: (±)-1-(cyclohexyloxycarbonyloxy)ethyl 2-ethoxy-1-[[2′-(1H-tetrazole-5-yl)biphenyl-4-yl]methyl]-1H-benzmidazole-7-carboxylate Method: Five-week-old male rats were anesthetized by intraperitoneal injection of pentobarbital sodium and ⅔ of the right kidney was removed. One week later, the entire left kidney was removed under similar anesthesia. After two-week breeding, 24-hour urine was collected and the total protein content and albumin content in the urine were determined by the use of A/G-B test (Wako Pure Chemistry Co., Ltd.). On the basis of urinary protein and blood pressure (BP), the rats were divided into two groups (vehicle-treated rats and rats treated with 1 mg/kg/day, p.o. of compound 1). Rats undergoing nephrectomy of the left kidney alone were also used as sham operated rats. Compound 1 was suspended in gum-arabic and the suspension was orally administered once a day for eight weeks. At the 2nd, 4th, 6th and 8th week of the treatment, 24-hour urine was collected. Results: Table 1 summarizes the results. Urinary total protein and albumin began to markedly increase in vehicle-treated rats two weeks after surgery. […] Since compound 1 suppresses aggravation of renal impairment, its efficacy in glomerulonephritis or diabetic nephropathy is expected.

in vivo = conditions: both sexes, po
Procedure: Acute Toxicity Test Compound 1: (±)-1-(cyclohexyloxycarbonyloxy)ethyl 2-ethoxy-1-[[2′-(1H-tetrazole-5-yl)biphenyl-4-yl]methyl]-1H-benzimidazole-7-carboxylate The LD50 of compound 1 is 2,000 mg/kg or more for 4-week-old Jcl:ICR mice (males and females) and for 5-week-old Jcl:Wister rats (males and females) via single oral administration.

[2] = age 11 weeks (start of treatment, baseline), Wistar fatty rats, n = 6, mean ± standard error
[3] = age 13 weeks, 1 mg/kg/day p.o., mean ± standard error
[4] = age 15 weeks, 1 mg/kg/day p.o., mean ± standard error
[5] = age 17 weeks, 1 mg/kg/day p.o., mean ± standard error
[6] = age 19 weeks, 1 mg/kg/day p.o., mean ± standard error
[7] = age 21 weeks, 1 mg/kg/day p.o., mean ± standard error
[8] = 2 weeks after the first dose, 1 mg/kg/day p.o., mean ± standard error
[9] = 4 weeks after the first dose, 1 mg/kg/day p.o., mean ± standard error
[10] = 6 weeks after the first dose, 1 mg/kg/day p.o., mean ± standard error
[11] = 8 weeks after the first dose, 1 mg/kg/day p.o., mean ± standard error
[12] = Preadministration (baseline), 5/6 nephrectomized rats, n = 9, mean ± standard error

Q: Which “Effect on blood glucose level” value (Wistar fatty rats; Wistar fatty rats, 1 mg/kg/day p.o.) does the source give for `CCOc1nc2cccc(C(=O)OC(C)OC(=O)OC3CCCCC3)c2n1Cc1ccc(-c2ccccc2-c2nnn[nH]2)cc1` (racemic) [Compound 1, (±)-1-(cyclohexyloxycarbonyloxy)ethyl 2-ethoxy-1-[[2′-(1H-tetrazole-5-yl)biphenyl-4-yl]methyl]-1H-benzimidazole-7-carboxylate] here?
A: Its value is “did not affect blood glucose level”.

Q: And the “Urinary albumin content relative to the value in lean rats” value (Wistar fatty rats; Wistar fatty rats, 1 mg/kg/day p.o., vehicle-treated about 100 times)?
A: The value was 20-30 times.

Q: And the “Urinary total protein content relative to the value in lean rats” value (Wistar fatty rats; Wistar fatty rats, 1 mg/kg/day p.o., vehicle-treated about three times)?
A: The value was 1.2-1.5 times.

Q: What about the Urinary albumin (Wistar fatty rats; [2]) of the same compound?
A: Its Urinary albumin is 6.5 ± 0.4 mg/24 hr.

Q: And the Urinary total protein (Wistar fatty rats; [2])?
A: Its Urinary total protein is 101 ± 6 mg/24 hr.

Q: What about the Urinary albumin (Wistar fatty rats; [3]) of the same compound?
A: The Urinary albumin was 11.2 ± 3.9 mg/24 hr.

Q: What about the Urinary total protein (Wistar fatty rats; [3]) of the same compound?
A: The Urinary total protein was 69 ± 11 mg/24 hr.

Q: And the Urinary albumin (Wistar fatty rats; [4])?
A: The Urinary albumin was 14.8 ± 6.1 mg/24 hr.

Q: And the Urinary total protein (Wistar fatty rats; [4])?
A: The Urinary total protein was 91 ± 12 mg/24 hr.

Q: And the Urinary albumin (Wistar fatty rats; [5])?
A: The Urinary albumin was 21.8 ± 8.2 mg/24 hr.

Q: What about the Urinary total protein (Wistar fatty rats; [5]) of the same compound?
A: The Urinary total protein was 97 ± 11 mg/24 hr.

Q: And the Urinary albumin (Wistar fatty rats; [6])?
A: The Urinary albumin was 10.7 ± 3.9 mg/24 hr.

Q: And the Urinary total protein (Wistar fatty rats; [6])?
A: The Urinary total protein was 79 ± 10 mg/24 hr.

Q: And the Urinary albumin (Wistar fatty rats; [7])?
A: Its Urinary albumin is 15.4 ± 3.7 mg/24 hr.

Q: What about the Urinary total protein (Wistar fatty rats; [7]) of the same compound?
A: Its Urinary total protein is 74 ± 13 mg/24 hr.

Q: And the Urinary albumin [1, 8]?
A: The Urinary albumin was 6.3 ± 2.9 mg/100 g/24 hr.

Q: And the Urinary total protein [1, 8]?
A: Its Urinary total protein is 30.9 ± 5.2 mg/100 g/24 hr.

Q: What about the Urinary albumin [1, 9] of the same compound?
A: The Urinary albumin was 6.8 ± 3.4 mg/100 g/24 hr.

Q: And the Urinary total protein [1, 9]?
A: Its Urinary total protein is 27.7 ± 4.0 mg/100 g/24 hr.

Q: What about the “Urinary total protein and albumin (course versus vehicle-treated rats)” value ([1]; 5/6 nephrectomized rats, 1 mg/kg/day p.o. for eight weeks) of the same compound?
A: Its value is “these parameters did not increase”.

Q: What about the Urinary albumin [1, 10] of the same compound?
A: The Urinary albumin was 7.4 ± 4.0 mg/100 g/24 hr.

Q: And the Urinary total protein [1, 10]?
A: Its Urinary total protein is 17.6 ± 5.6 mg/100 g/24 hr.

Q: And the Urinary albumin [1, 11]?
A: The Urinary albumin was 5.6 ± 2.7 mg/100 g/24 hr.

Q: And the Urinary total protein [1, 11]?
A: The Urinary total protein was 24.4 ± 2.7 mg/100 g/24 hr.

Q: And the Urinary albumin [1, 12]?
A: The Urinary albumin was 7.3 ± 2.3 mg/100 g/24 hr.

Q: And the Urinary total protein [1, 12]?
A: Its Urinary total protein is 32.8 ± 5.4 mg/100 g/24 hr.

Q: And the LD50 (in vivo; Jcl:ICR, mouse)?
A: Its LD50 is ≥ 2000 mg/kg.

Q: And the LD50 (in vivo; Jcl:Wister, rat)?
A: Its LD50 is ≥ 2000 mg/kg.
